Data published in PMC5768759 (2018).

Columns and labels:
[1] = tested on: F-duplex-T (DNA, hairpin, Spacer18 (hexaethylene glycol) between 10 and 11) TATAGCTATATATAGCTATA; test: FRET melting; conditions: 5 mM K+, 50 mM Li+; 5 mM lithium cacodylate, pH 7.4; compound 0.2 μM, DNA 0.2 μM; no increment above error
[2] = tested on: ht21 (DNA, G4) GGGTTAGGGTTAGGGTTAGGG; test: fluorescent intercalator displacement; conditions: 100 mM K+; 10 mM lithium cacodylate, pH 7.4; thiazole orange 0.5 μM displaced; DNA 0.25 μM; nearly 6-fold weaker than c-myc
[3] = tested on: ds26 (DNA, duplex) CAATCGGATCGAATTCGATCCGATTG; test: fluorescent intercalator displacement; conditions: 100 mM K+; 10 mM lithium cacodylate, pH 7.4; thiazole orange 0.75 μM displaced; DNA 0.25 μM; nearly 10-fold weaker than c-myc
[4] = tested on: c-myc (DNA, G4) TGAGGGTGGGTAGGGTGGGTAA; test: fluorescent intercalator displacement; conditions: 100 mM K+; 10 mM lithium cacodylate, pH 7.4; thiazole orange 0.5 μM displaced; DNA 0.25 μM

binding [1]	DC50 [2]	DC50 [3]	DC50 [4]	Compound
no	–	–	–	NCCCCCCCCCCN.[Cl-].[Cl-].[Pt+2].[Pt+2].c1ccc(-c2ccnc3c2ccc2c(-c4ccccc4)ccnc23)cc1.c1ccc(-c2ccnc3c2ccc2c(-c4ccccc4)ccnc23)cc1
no	1170 nM	1840 nM	200 nM	NCCCCCCCCCN.[Cl-].[Cl-].[Pt+2].[Pt+2].c1ccc(-c2ccnc3c2ccc2c(-c4ccccc4)ccnc23)cc1.c1ccc(-c2ccnc3c2ccc2c(-c4ccccc4)ccnc23)cc1
no	–	–	–	NCCCCCCCCN.[Cl-].[Cl-].[Pt+2].[Pt+2].c1ccc(-c2ccnc3c2ccc2c(-c4ccccc4)ccnc23)cc1.c1ccc(-c2ccnc3c2ccc2c(-c4ccccc4)ccnc23)cc1
no	–	–	–	NCCCCCCCN.[Cl-].[Cl-].[Pt+2].[Pt+2].c1ccc(-c2ccnc3c2ccc2c(-c4ccccc4)ccnc23)cc1.c1ccc(-c2ccnc3c2ccc2c(-c4ccccc4)ccnc23)cc1
